Test results published in patent US4916147A, “3-[(4-Aroyl) phenoxy (or phenylthio)]-cyclopentanecarboxylic acid analogues and treatment of cerebral edema therewith” (Ono Pharmaceutical Co., Ltd., priority 1985, dated 1990).

How the values were obtained:
mice = experiment: Acute toxicity test in mice by intravenous administration; format: in vivo; settings: dead/treated
Method: For example, in the acute toxicity test in mice by intravenous administration, the mortality of compound of example 1 and 1-3 are 0/6 and 0/6 at the dose of 100 mg/kg and are 6/6 and 4/6 at the dose of 200 mg/kg, respectively.

[1] = test system: organ slice of cat cerebral cortex; experiment: Inhibition test on cerebral edema using organ slice of cat cerebral cortex (NaHCO3-stimulated swelling); format: cell-based; settings: Felis catus, 50 min, cat cerebral cortex slices, 50 minutes at 37° C., pH 7.4, swelling stimulated with NaHCO3; for IC50: read-out: inhibitory activity of cerebral edema (IC50); for inhibition at 0.01 µM: 10^-8 M, read-out: a percentage of inhibition of swelling at 10^-8 M (%)
Method: THE INHIBITION TEST ON CEREBRAL EDEMA USING ORGAN SLICE OF CAT CEREBRAL CORTEX
The test was carried out by the method described in Journal of Medicinal Chemistry, Vol. 25 (No. 5), 567 (1982).
That is, brain was isolated from a cat weighing 2~4 kg, slices of about 1 mm in thickness was prepared, the white matter substance was removed, and the gray matter substance (100~150 mg a test) was used for a sample. The sample was added to the following incubation medium and incuvated for 50 minutes at 37° C. After the incubation, the sample was immediately weighed again to determine the swelling weight of the sample.
(osmotic pressure, 280~290 mOsm/l)
1. Hepes Buffer (pH 7.4). . . 2.365 ml
adjusted to pH 7.4 by NaOH
2. test compounds [dissolved in the presence of tris(hydroxymethyl) aminomethane] or water. . . 0.01 ml
3. 0.2M NaHCO3 (dissolved by Hepes Buffer, giving the final concentration of 10 mM in medium) or Hepes Buffer. . . 0.125 ml
The test was carried out by using NaHCO3 as a stimulating agent of swelling.
(A) A percentage of swelling when a slice sample was added to incubation medium comprising Hepes Buffer, water and NaHCO3 (defined as maximum of swelling).
(B) A percentage of swelling when a slice sample was added to incubation medium comprising Hepes Buffer and water (defined as maximum inhibition of swelling).
(C) A percentage of swelling when a slice sample was added to incubation medium comprising Hepes Buffer, the test compounds in various concentrations and NaHCO3.
Above-mentioned (A), (B) and (C) were determined. Inhibition percentage of the test compounds was caliculated by the following equation: [formula] IC50 value was determined by dose-response curve as a concentration in which inhibition percentage was 50.
The results are shown Table I. And further, percentages of swelling of (C) was counted, in the case that concentration of test compound of (C) was 10^-8 M, and inhibition of swelling at the concentration of 10^-8 M was determined by percentages of swelling of both (A) and (B).

## O=C(c1ccccc1)c1ccc(O[C@H]2CC[C@H](C(=O)O)C2)c(Cl)c1Cl [Example 1, (1S,3S)-3-[(2,3-dichloro-4-benzoyl)phenoxy]cyclopentanecarboxylic acid]
mice; 100 mg/kg
  mortality: 0/6
mice; 200 mg/kg
  mortality: 6/6
[1]
  IC50: 5.5 nM

## O=C(c1cccs1)c1ccc(O[C@H]2CC[C@H](C(=O)O)C2)c(Cl)c1Cl [Example 1-3, (1S,3S)-3-[{2,3-dichloro-4-(2-thenoyl)}phenoxy]cyclopentanecarboxylic acid]
mice; 100 mg/kg
  mortality: 0/6
mice; 200 mg/kg
  mortality: 4/6
[1]
  IC50: 2.2 nM

## O=C(c1ccccc1F)c1ccc(O[C@H]2CC[C@H](C(=O)O)C2)c(Cl)c1Cl [Example 1-8, (1S,3S)-3-[{2,3-dichloro-4-(2-fluorobenzoyl)}phenoxy]cyclopentanecarboxylicacid]
[1]
  inhibition at 0.01 µM: 82%
  IC50: 2.6 nM

## O=C(c1cccc([N+](=O)[O-])c1)c1ccc(O[C@H]2CC[C@H](C(=O)O)C2)c(Cl)c1Cl [Example 1-12, (1S,3S)-3-[{2,3-dichloro-4-(3-nitrobenzoyl)}phenoxy]cyclopentanecarboxylic acid]
[1]
  inhibition at 0.01 µM: 52%

## O=C(Cc1ccccc1)c1ccc(O[C@H]2CC[C@H](C(=O)O)C2)c(Cl)c1Cl [Example 1-13, (1S,3S)-3-[(2,3-dichloro-4-phenylacetyl)phenoxy]cyclopentanecarboxylic acid]
[1]
  inhibition at 0.01 µM: 36%

## O=C(c1ccc(O[C@H]2CC[C@H](C(=O)O)C2)c(Cl)c1Cl)c1cccc2ccccc12 [Example 1-19, (1S,3S)-3-[{2,3-dichloro-4-(1-naphthoyl)}phenoxy]cyclopentanecarboxylic acid]
[1]
  inhibition at 0.01 µM: 90%
  IC50: 4.1 nM

## Cc1cccc(C(=O)c2ccc(O[C@H]3CC[C@H](C(=O)O)C3)c(Cl)c2Cl)c1 [Example 1-20, (1S,3S)-3-[{2,3-dichloro-4-(3-methylbenzoyl)}phenoxy]cyclopentanecarboxylicacid]
[1]
  inhibition at 0.01 µM: 78%

## O=C(c1ccccc1)c1ccc(O[C@H]2CC[C@H](C(=O)O)C2)cc1Cl [Example 1-25, (1S,3S)-3-[(3-chloro-4-benzoyl)phenoxy]cyclopentanecarboxylic acid]
[1]
  inhibition at 0.01 µM: 100%
  IC50: 3 nM

## O=C(c1ccccc1)c1ccc(O[C@H]2CC[C@H](C(=O)O)C2)c2ccccc12 [Example 4, (1S,3S)-3-(4-benzoyl-1-naphthoxy)cyclopentanecarboxylic acid]
[1]
  inhibition at 0.01 µM: 41%
